Our source for the TGI and GI50 values is PubChem BioAssay (NCI).

Values joined by “and” are separate entries in the source; they are usually repeats but may differ in a detail not shown here. Identical values can stand only once.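 96-well plates; 48 h exposure; 5 concentrations. Endpoints by linear interpolation between flanking doses. Not reached: highest tested concentration assigned. At the GI50, growth is halved. At the TGI there is no net growth.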

Test systems include A498 renal; HCC-2998 colon; HT29 colon; IGROV1 ovarian; NCI-H460 lung; OVCAR-4 ovarian; SF-295 CNS; SF-539 CNS; SK-OV-3 ovarian; UACC-257 melanoma.
Common to all, as to test: NCI tumour cell line growth inhibition, 48 h

As for `COc1nc2nccc-2c2occn12`, the TGI in the test with A498 renal, in the test with HCC-2998 colon, with HT29 colon, with IGROV1 ovarian, in the test with NCI-H460 lung and with OVCAR-4 ovarian was greater than 100 µM in each case. For the same compound, the TGI with SF-295 CNS, in the test with SF-539 CNS, in the test with SK-OV-3 ovarian and with UACC-257 melanoma was greater than 100 µM throughout.

Consider `CCCCCCCCCCCCCC(=O)CBr`, for which the TGI in the test on A498 renal was found to be 35.5 µM; in the test with HCC-2998 colon, 32.1 µM; in the test with HT29 colon, 30.5 µM; with IGROV1 ovarian, 15.1 µM; in the test with NCI-H460 lung, 35.3 µM; in the test with OVCAR-4 ovarian, 28.8 µM. The TGI in the test on SF-295 CNS was determined as 29.3 µM; in the test on SF-539 CNS, 30.7 µM; with SK-OV-3 ovarian, 43.2 µM; in the test on UACC-257 melanoma, 17.7 µM.

As for `Cc1cc(C(C#N)c2ccc(Cl)cc2)c(Cl)cc1NC(=O)c1cc(I)cc(I)c1O` (stereo not given), the GI50 with A498 renal is 11.2 µM; with HCC-2998 colon it was 4.08 µM and 10.8 µM; in the test on HT29 colon it was 7.23 µM and 18.6 µM; in the test on IGROV1 ovarian, 10.5 µM and 16.1 µM; in the test with NCI-H460 lung, 4.87 µM and 19.5 µM; in the test with OVCAR-4 ovarian, 16.4 µM and 17.5 µM. Moreover, the GI50 was 3.22 µM and 10.9 µM in the test on SF-295 CNS; 8.18 µM and 13.2 µM in the test on SF-539 CNS; 15.6 µM and 15.8 µM with SK-OV-3 ovarian; 14.4 µM and 15.1 µM with UACC-257 melanoma. Also, the TGI in the test on A498 renal is 29.9 µM; in the test on HCC-2998 colon, 15.4 µM and 24 µM; in the test with HT29 colon, 22.6 µM and 40.4 µM; with IGROV1 ovarian it was 40.9 µM and 36.5 µM; in the test on NCI-H460 lung, 28.5 µM and 46.3 µM; in the test on OVCAR-4 ovarian, 51.4 µM and 47.9 µM. Also, the TGI in the test with SF-295 CNS was 14.7 µM and 30.1 µM; in the test on SF-539 CNS, 23.2 µM and 32.4 µM; in the test with SK-OV-3 ovarian, 29.2 µM and 29.5 µM; in the test with UACC-257 melanoma, 28.1 µM and 29.6 µM.

In the case of `O=C(CSC(=S)N1CCOCC1)Nc1nc2c(s1)CCCC2`, the TGI was greater than 100 µM in the test with A498 renal; 61.2 µM with HCC-2998 colon; greater than 100 µM with HT29 colon; greater than 100 µM with IGROV1 ovarian; greater than 100 µM in the test with NCI-H460 lung; greater than 100 µM in the test with OVCAR-4 ovarian. Further, the TGI in the test on SF-295 CNS, in the test with SF-539 CNS, in the test with SK-OV-3 ovarian and in the test on UACC-257 melanoma was greater than 100 µM in each case.

Take `O=C(CCl)N1c2ccccc2Sc2c1ccc1ccccc21`: the GI50 in the test with A498 renal is 12.9 µM; in the test with HCC-2998 colon it was 2.02 µM; with HT29 colon, 3.58 µM; in the test on NCI-H460 lung, 2.11 µM; with OVCAR-4 ovarian it was 2.56 µM; in the test on SF-295 CNS, 2.38 µM. Besides, the GI50 with SF-539 CNS is 2.08 µM; in the test on SK-OV-3 ovarian, 13.4 µM; in the test with UACC-257 melanoma it was 2.24 µM. For the same compound, the TGI stood at 25.9 µM in the test on A498 renal; 3.59 µM in the test with HCC-2998 colon; 15.5 µM in the test on HT29 colon; 4.34 µM with NCI-H460 lung; 6.18 µM with OVCAR-4 ovarian; 6.53 µM with SF-295 CNS. Besides, the TGI stood at 4.81 µM with SF-539 CNS, 26.2 µM in the test on SK-OV-3 ovarian and 5.6 µM in the test on UACC-257 melanoma.

As to `C[C@@H]1COCCN1c1cc(C2(S(C)(=N)=O)CC2)nc(-c2ccnc3[nH]ccc23)n1` (stereo not given in full), the GI50 is 0.146 µM with A498 renal; 2.39 µM in the test on HCC-2998 colon; 6.95 µM with HT29 colon; 3.63 µM in the test on IGROV1 ovarian; 1.07 µM with NCI-H460 lung; 1.86 µM in the test with OVCAR-4 ovarian. Moreover, the GI50 in the test with SF-295 CNS was 1.66 µM; in the test on SF-539 CNS, 0.86 µM; in the test on SK-OV-3 ovarian it was 5.27 µM; in the test with UACC-257 melanoma it was 11.7 µM. Further, the TGI is 1.69 µM in the test on A498 renal; greater than 100 µM in the test with HCC-2998 colon; greater than 100 µM in the test on HT29 colon; 63.1 µM with IGROV1 ovarian; 20.6 µM in the test with NCI-H460 lung; 23.7 µM with OVCAR-4 ovarian. Further, the TGI in the test with SF-295 CNS was found to be 19.8 µM; in the test on SF-539 CNS it was 3.5 µM; in the test on SK-OV-3 ovarian it was 56.4 µM; in the test with UACC-257 melanoma, 52.7 µM.

Take `C[C@@H]1CN(CC(=O)N2CC(C)(C)c3nc(CO)c(Cc4ccc(F)cc4)cc32)[C@@H](CN2CCOC[C@H]2C)CN1`: the GI50 in the test on A498 renal was 25.8 µM; in the test on HCC-2998 colon, 17.1 µM; in the test with HT29 colon it was 22.2 µM; with IGROV1 ovarian, greater than 100 µM; in the test with NCI-H460 lung it was 45.9 µM; in the test on OVCAR-4 ovarian it was 20.6 µM. Also, the GI50 in the test with SF-295 CNS is 61.6 µM; in the test on SF-539 CNS, 6.85 µM; in the test on SK-OV-3 ovarian, 0.0235 µM; with UACC-257 melanoma, 15.3 µM. For the same compound, the TGI in the test with A498 renal is 96.2 µM; in the test with HCC-2998 colon, 32.4 µM; in the test on HT29 colon, 49.2 µM; with IGROV1 ovarian, greater than 100 µM; in the test with NCI-H460 lung, greater than 100 µM; in the test on OVCAR-4 ovarian, greater than 100 µM. Further, the TGI is greater than 100 µM in the test on SF-295 CNS, 23.6 µM in the test on SF-539 CNS, 0.088 µM in the test with SK-OV-3 ovarian and 31.1 µM with UACC-257 melanoma.

Turning to `O=C1/C(=C/c2ccc(O)cc2)COc2ccc(-c3ccccc3)cc21`, the GI50 in the test with A498 renal was 11.5 µM; with HCC-2998 colon it was 4.08 µM; in the test on HT29 colon, 3.35 µM; in the test with IGROV1 ovarian, 6.12 µM; with NCI-H460 lung it was 3.73 µM; in the test on OVCAR-4 ovarian, 14.1 µM. For the same compound, the GI50 in the test on SF-295 CNS was 6.8 µM; in the test on SF-539 CNS it was 13.9 µM; with SK-OV-3 ovarian, 21.4 µM. The TGI in the test on A498 renal came to 23.8 µM; with HCC-2998 colon, 11.2 µM; with HT29 colon, 11.5 µM; with IGROV1 ovarian, 20.8 µM; in the test with NCI-H460 lung, 15.8 µM; in the test with OVCAR-4 ovarian it was 31 µM. The TGI in the test with SF-295 CNS came out at 24.7 µM; in the test with SF-539 CNS it was 27 µM; in the test on SK-OV-3 ovarian it was 46.1 µM.

For `COc1ccc2c3c(c(=O)n(C)c2c1OC)C=CC(C)(C)O3`, the TGI in the test on A498 renal is 71.7 µM; in the test on HCC-2998 colon it was greater than 100 µM; in the test with HT29 colon, 72.7 µM; in the test with IGROV1 ovarian, greater than 100 µM; with OVCAR-4 ovarian it was 41.3 µM; with SF-295 CNS, greater than 100 µM. For the same compound, the TGI with SF-539 CNS, in the test with SK-OV-3 ovarian and in the test with UACC-257 melanoma was greater than 100 µM each time.
